Where no end group is shown, it is not given here.
What was measured:
C. albicans [1] = assay: Kirby-Bauer disk diffusion, C. albicans; format: cell-based, Candida albicans; conditions: disks treated with 1 mM, five-day incubation at 30 °C
HEK293T [2] = assay: Confocal microscopy of membrane integrity, HEK293T; format: cell-based, human; conditions: 100 µM prodrug, 3 hours at 37 °C, CellBrite Fix Membrane Stain 640
Method: (§1) standard curve: ∆PLCy5.5 vs. [fully-digested FRET probe]. Data were then fitted to the following Michaelis-Menten equation: ! = !!"#[…]. […]
(§2) amino acid sequences were provided. PEP-FOLD then employs a physics-based energy function […]
(§3) structures for the given peptide sequence. […]
(§4) dynamics sampling approach. […]
(§5) energy and the agreement with experimental or theoretical constraints. The algorithm selects the […]
(§6) allowed to grow overnight. […]
(§7) peptides for 3 hours at 37 °C. Next, cells were washed three times with sterile PBS. Mammalian […]
(§8) PBS (Thermo Scientific) at room temperature for 20 min. Cells were imaged by a confocal […]
(§9) Transmission Electron Microscopy. […]
(§10) by air drying overnight. Cellular morphology was conducted using the same microscope. Here, […]
(§11) nanomedicine lab (UCSD NanoEngineering). Cells were cultured in complete Dulbecco’s […]
(§12) Streptomycin), at 37 °C and 5% CO2. Passages were conducted with 0.25% Trypsin EDTA before […]
(§13) signal that is proportional to H2O2 concentration. Cells were seeded into 96-well plates (Corning, […]

HEK293T [3] = assay: XTT viability assay, HEK293T; format: cell-based, human
SAP9 = target: T1, SAP9 (Candida albicans, UniProt Q59SU1); assay: Enzyme digestion by recombinant SAP9 (MALDI-TOF / ESI-MS); format: biochemical; conditions: 37 °C; for Cleavage / degradation by SAP9: 300 nM recombinant SAP9, 3 h, 9.5 mM MES, 2.7 mM KCl, 140 mM NaCl pH 5.5, 455 µM peptide, MALDI-TOF (ESI-MS for P-113)
T1 construct: purchased MyBioSource (San Diego, CA)
Method: (§14) Probe activation, kinetics, and cytotoxicity.
(§15) Enzyme digestion. SAP9 and RgpB cleavage were both performed with 455 µM of peptide. […] Then, 10 µL of the enzyme at the appropriate concentration was added. An optimized final concentration of 300 nM for SAP9 and 200 nM for RgpB were used. The solution was incubated at 37 °C for 3 hours for RgpB and SAP9 for optimal cleavage.

P. gingivalis [4] = assay: ROS H2O2 luminescence assay, P. gingivalis; format: cell-based, Porphyromonas gingivalis; conditions: 10 μM, 4 hours, ROS-Glo H2O2 assay, versus cells + PBS
Method: (§16) The assay uses an H2O2 substrate that reacts directly with H2O2 to generate a luciferin precursor [55]. It was predicted that exposure of the microorganisms to the prodrug would lead to alterations in their normal physiological processes thus triggering a stress response and inducing the generation of ROS. […] This is consistent with previous studies wherein ROS production is credited as the secondary event of the fungicidal mechanism of P-113 [56]. […]
as §7
(§17) PBS (Thermo Scientific) at room temperature for 20 min. […]
(§18) Cells were cultured in complete Dulbecco’s
as §12, §13
(§19) then incubated for 4 hours at 37 °C before 100µl of ROS-Glo™ Detection Solution was added to each well. Finally, the plate was incubated for 20 minutes at room temperature and the relative luminescence was recorded using a plate reader (Synergy H1, BioTek). […]
(§20) LoB = meanblank + 1.645 (SDblank) […]
(§21) LoD = LoB + 1.645 (SDlow concentration sample).
(§22) Statistical Analysis. Statistical analysis was conducted using GraphPad Prism 10. […]
(§23) A P-value of < 0.05 was […]
(§24) considered significant. […]

P. gingivalis [5] = assay: Kirby-Bauer disk diffusion, P. gingivalis; format: cell-based, Porphyromonas gingivalis; conditions: disks treated with 1 mM, five-day incubation at 37 °C
C. albicans [6] = assay: ROS H2O2 luminescence assay, C. albicans; format: cell-based, Candida albicans; conditions: 10 μM, 4 hours, ROS-Glo H2O2 assay, versus cells + PBS
Method: as §16, §7, §17, §18, §12, §13, §19, §20, §21, §22, §23, §24

C. albicans [7] = tested on: C. albicans; design: method as in PMID 27458227; conditions: previous work; cited from earlier work
RgpB = target: T2, RgpB (Porphyromonas gingivalis, UniProt P95493); assay: Enzyme digestion by recombinant RgpB (MALDI-TOF / ESI-MS); format: biochemical; conditions: 37 °C
T2 construct: gift from Professor Anthony O'Donoghue (UC San Diego)
Method: as §14, §15

P. gingivalis [8] = assay: XTT viability assay, P. gingivalis; format: cell-based, Porphyromonas gingivalis; conditions: 10 µM
F. nucleatum = assay: XTT viability assay, F. nucleatum; format: cell-based, Fusobacterium nucleatum; conditions: intact peptide
C. albicans [9] = assay: XTT viability assay, C. albicans; format: cell-based, Candida albicans; conditions: intact peptide, 10 µM, 3 h at 37 °C, absorbance 490 nm, sextuplet measurements
Method: Fungal culture. In situ culturing C. albicans (ATCC 90028) from lyophilized stock (KWIK-STIK, VWR) was conducted on Sabouraud dextrose agar plates (Sigma-Aldrich) 2 to 5 days in advance of the antifungal assay. The plates were then incubated at 30°C and pearl-like colonies were observed, indicative of C. albicans. Single colonies were then extracted with sterilized inoculation loops and inoculated in 3 mL yeast extract peptone dextrose (YEPD) medium (2% Bacto^TMpeptone, 2% Dextrose, 1% Yeast extract in H2O) using Biological Safety Level 2 (BSL-2) practices and procedures. Note, the broth was autoclaved before use and stored at room temperature. […] The culture was finally diluted 1:100 and the OD600 was measured wherein OD600 = 0.5 a.u. correlates to approximately 1 × 10^6 cells/ mL in 100 µL RPMI-1640 medium with L-glutamine and 3-(N-morpholino)propane sulfonic acid (MOPS) without sodium bicarbonate, pH 7.0. […]
Viability assay. The percent toxicity was calculated using an XTT (2,3-bis-(2-methoxy-4-nitro-5-sulfophenyl)-2H-tetrazolium-5-carboxanilide) colorimetric assay (Biotium) wherein viable cells form an orange formazan product upon reduction. […] The absorbance of the formazan dye was measured at a wavelength of 490 nm using a microplate reader. Here, the absorbance is directly proportional to the number of viable cells present in each well. […]

P. gingivalis [10] = assay: TEM of cell morphology, P. gingivalis; format: cell-based, Porphyromonas gingivalis; conditions: 3 hours at 37 °C; G1 at 40 µM
Description: (§25) Finally, the target microorganisms were also imaged using transmission electron microscopy (TEM) to visualize the cell morphology. Figure 3C presents C. albicans cells. On the left, the untreated cells show a rigid and intact membrane in contrast to the […] (+ S1) showing decreased cell density and clear destruction of the membranes. This obvious change in morphology is seen at other magnifications (Supplementary Figure S19). […]
as §1, §2, §3, §4, §5, §6, §7, §8, §9, §10, §11, §12

C. albicans [11] = assay: TEM of cell morphology, C. albicans; format: cell-based, Candida albicans; conditions: 3 hours at 37 °C; S1 at 40 µM
Description: as §25, §1, §2, §3, §4, §5, §6, §7, §8, §9, §10, §11, §12

T1 sequence (Q59SU1 18-544): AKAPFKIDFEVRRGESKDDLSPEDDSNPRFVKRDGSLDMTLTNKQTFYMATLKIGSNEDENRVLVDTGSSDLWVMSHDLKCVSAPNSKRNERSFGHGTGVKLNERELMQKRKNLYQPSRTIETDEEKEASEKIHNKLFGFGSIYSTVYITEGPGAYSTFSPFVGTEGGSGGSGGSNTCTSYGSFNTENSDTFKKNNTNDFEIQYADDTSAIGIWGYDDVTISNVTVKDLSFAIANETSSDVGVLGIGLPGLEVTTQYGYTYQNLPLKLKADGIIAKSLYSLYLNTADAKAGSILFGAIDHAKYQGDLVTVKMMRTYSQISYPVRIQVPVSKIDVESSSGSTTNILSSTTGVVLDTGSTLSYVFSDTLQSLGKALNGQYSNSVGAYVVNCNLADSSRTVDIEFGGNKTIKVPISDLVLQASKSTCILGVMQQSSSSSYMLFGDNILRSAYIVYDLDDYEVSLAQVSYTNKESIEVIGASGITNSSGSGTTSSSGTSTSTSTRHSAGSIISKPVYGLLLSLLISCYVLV
T2 sequence (P95493 230-736): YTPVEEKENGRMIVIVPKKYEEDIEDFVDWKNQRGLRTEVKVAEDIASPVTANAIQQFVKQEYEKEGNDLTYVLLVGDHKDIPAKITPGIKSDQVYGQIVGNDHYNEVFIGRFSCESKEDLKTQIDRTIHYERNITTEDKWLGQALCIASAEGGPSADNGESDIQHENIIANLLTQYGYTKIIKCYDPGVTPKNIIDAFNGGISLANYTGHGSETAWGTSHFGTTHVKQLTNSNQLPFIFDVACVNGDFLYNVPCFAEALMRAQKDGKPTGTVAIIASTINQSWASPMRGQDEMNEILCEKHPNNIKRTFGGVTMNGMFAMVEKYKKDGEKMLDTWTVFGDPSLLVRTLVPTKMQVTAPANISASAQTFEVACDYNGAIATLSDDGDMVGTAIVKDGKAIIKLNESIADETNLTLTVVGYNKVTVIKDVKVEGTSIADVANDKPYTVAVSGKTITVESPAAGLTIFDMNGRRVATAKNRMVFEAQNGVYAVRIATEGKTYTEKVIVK

OC(Cn1cncn1)(Cn1cncn1)c1ccc(F)cc1F [FLZ, fluconazole, reference compound]
Growth inhibition in disk diffusion test (C. albicans [1]): Obvious growth inhibition

AKRHHGYKRKFHGGAGPRIDGGDDDDDD-NH2 [G1]
Membrane integrity by confocal microscopy (HEK293T [2]): membrane remained intact | Toxicity to HEK293T compared to P-113 (HEK293T [3]; intact prodrug, 10 µM, XTT): decreased toxicity by nearly half

Ac-AKRHHGYKRKFH-NH2 [P-113, reference compound]
Cleavage / degradation by SAP9 (SAP9): no degradation | Growth inhibition in disk diffusion test (C. albicans [1]): Obvious growth inhibition | H2O2 ROS generation, relative luminescence (P. gingivalis [4]): six-fold increase | Growth inhibition in disk diffusion test (P. gingivalis [5]): Colony growth is inhibited | H2O2 ROS generation, relative luminescence (C. albicans [6]): six-fold increase | MIC for HEK293T relative to MIC for the oral microorganisms (HEK293T [3]): ~100 times | MIC (C. albicans [7]): 10 µM | Cleavage / degradation by RgpB (RgpB; 200 nM recombinant RgpB, 3 h, 0.2 M Tris HCl pH 7.6, 5 mM CaCl2, 100 mM NaCl, 40 mM TCEP, 455 µM peptide, MALDI-TOF (ESI-MS for P-113)): no degradation

Ac-AKRHHGYKRKFHGGVKKKDVVDGGDDDDDD-NH2 [S1]
Change of percent toxicity upon cleavage (P. gingivalis [8]; S1 pre-cleaved in vitro by 300 nM recombinant SAP9 versus intact (30%)): nearly doubled | Percent toxicity (P. gingivalis [8]; intact peptide, 3 h at 37 °C, absorbance 490 nm, sextuplet measurements): 30% | Cleavage / degradation by SAP9 (SAP9): obvious mass peaks corresponding to the cleaved fragments | Cleavage by SAP9, S1 and G1 co-incubated (SAP9; joint solution of S1 and G1, SAP9 300 nM, 3 hours, MALDI-TOF): S1 converting to S1 fragment | Inhibited growth relative to the positive control treatment (FLZ) (C. albicans [1]; disk diffusion, diameter relative to fluconazole): approximately 70% | Growth inhibition in disk diffusion test (C. albicans [1]): Obvious growth inhibition | Percent toxicity (F. nucleatum; 10 µM, 3 h at 37 °C): 15% | Percent toxicity, highest over the titration (F. nucleatum; all tested concentrations): ≤ 50% | Percent toxicity (C. albicans [9]): 70% | Cell morphology by TEM (P. gingivalis [10]): intact cell structures | H2O2 ROS generation, relative luminescence (P. gingivalis [4]): little luminescence | Cell morphology by TEM (C. albicans [11]): decreased cell density and cell rupturing | Growth inhibition in disk diffusion test (P. gingivalis [5]): No growth inhibition | H2O2 ROS generation, relative luminescence (C. albicans [6]): six-fold increase | Cleavage by RgpB, S1 and G1 co-incubated (RgpB; joint solution of S1 and G1, RgpB 300nM, 3 hours, MALDI-TOF): S1 remaining intact
